In patent US10851099B2, “Dipeptide piperidine derivatives” (OncoArendi Therapeutics S.A., priority 2018, dated 2020):
Where a name gives a salt, the structure may show the parent alone.

Tests used:
[1] = molecular target: T1, recombinant human arginase 2 (Homo sapiens, UniProt P78540); assay: Human arginase inhibition assay (colorimetric urea detection), arginase 2; type: biochemical; details: IC50 class, hydrochloride salts, 1 h at 37° C., pH 7.4, 10 mM L-arginine, 200 μM MnCl2, read-out: Activity Class (ARG II)
T1 construct: made in house; host or cells: E. coli
T1 sequence (P78540 23-354): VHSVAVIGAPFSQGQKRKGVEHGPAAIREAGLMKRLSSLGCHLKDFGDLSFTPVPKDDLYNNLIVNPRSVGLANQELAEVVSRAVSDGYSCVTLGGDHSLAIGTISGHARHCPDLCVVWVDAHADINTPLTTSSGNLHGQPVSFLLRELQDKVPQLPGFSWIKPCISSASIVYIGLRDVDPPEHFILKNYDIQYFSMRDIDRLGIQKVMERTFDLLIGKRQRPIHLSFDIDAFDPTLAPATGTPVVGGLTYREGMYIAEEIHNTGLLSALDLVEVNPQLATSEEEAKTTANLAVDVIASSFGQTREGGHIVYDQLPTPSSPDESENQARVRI
Description: (§1) The inhibitory activities of the compounds of the invention were assessed using recombinant human arginase 1 and 2. Both enzymes were biosynthesized using a prokaryotic expression system (E. coli) and purified by fast protein liquid chromatography (FPLC). The compounds were screened in 96-well plates at the total reaction volume of 100 μL. Briefly, recombinant enzymes were incubated with the tested compounds for 1 h at 37° C. in the reaction buffer (100 mM sodium phosphate buffer, 130 mM NaCl, 1 mg/mL BSA, pH 7.4) containing substrate (10 mM L-arginine hydrochloride) and cofactor (200 μM MnCl2). The assay is based on the detection of urea, which is generated during the conversion of L-arginine into L-ornithine catalyzed by ARG1 or ARG2. The colorimetrically detectable product was developed by adding a mixture of reagent A (4 mM oPA, 50 mM boric acid, 1 M sulfuric acid, 0.03% Brij-35) and reagent B (4 mM NED, 50 mM boric acid, 1 M sulfuric acid, 0.03% Brij-35) in equal proportions. The absorbance for each well was measured at 515 nm and the enzyme inhibition was calculated. The urea production in the absence of any tested compound was considered as maximal enzyme activity. The absorbance at the absence of arginase (background) was subtracted from all the values. Normalized values were analyzed using GraphPad Prism 7.0 software by plotting inhibition curves and determining the IC50 values.
(§2) The inhibitory activity toward humane arginase 1 of the hydrochloride salts of the exemplary compounds according to the invention is presented in Table 5.
The inhibitory activity toward humane arginase 2 of the hydrochloride salts of the selected exemplary compounds according to the invention is presented in Table 6.

[2] = molecular target: T2, recombinant human arginase 1 (Homo sapiens, UniProt P05089); assay: Human arginase inhibition assay (colorimetric urea detection), arginase 1; type: biochemical; details: IC50 class, hydrochloride salts, 1 h at 37° C., pH 7.4, 10 mM L-arginine, 200 μM MnCl2, read-out: Activity Class (ARG I)
T2 construct: made in house; host or cells: E. coli
T2 sequence (P05089 1-322): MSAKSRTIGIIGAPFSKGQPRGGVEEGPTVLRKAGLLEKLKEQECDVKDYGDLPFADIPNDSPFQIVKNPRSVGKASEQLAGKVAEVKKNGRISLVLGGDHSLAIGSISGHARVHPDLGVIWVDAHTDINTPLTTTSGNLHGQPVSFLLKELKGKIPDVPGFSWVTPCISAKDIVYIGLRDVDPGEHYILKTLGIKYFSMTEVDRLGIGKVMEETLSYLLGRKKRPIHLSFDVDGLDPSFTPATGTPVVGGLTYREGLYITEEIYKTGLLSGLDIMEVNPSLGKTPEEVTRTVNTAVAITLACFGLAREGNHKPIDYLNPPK
Description: as §1, §2

SMILES	IC50 [1] [nM]	IC50 [2] [nM]
C[C@H](N)C(=O)N1C[C@@H](CCB(O)O)C[C@](N)(C(=O)O)C1 [Example 1, (3R,5S)-1-(L-Alanyl)-3-amino-5-(2-boronoethyl)piperidine-3-carboxylic acid dihydrochloride]	500 to 999	250 to 499
NCC(=O)N1C[C@@H](CCB(O)O)C[C@](N)(C(=O)O)C1 [Example 3, (3R,5S)-3-Amino-5-(2-boronoethyl)-1-glycylpiperidine-3-carboxylic acid dihydrochloride]	500 to 999	1 to 249
N[C@@H](CO)C(=O)N1C[C@@H](CCB(O)O)C[C@](N)(C(=O)O)C1 [Example 6, (3R,5S)-1-(L-Seryl)-3-amino-5-(2-boronoethyl)piperidine-3-carboxylic acid dihydrochloride]	500 to 999	1 to 249
NCCCC[C@H](N)C(=O)N1C[C@@H](CCB(O)O)C[C@](N)(C(=O)O)C1 [Example 7, (3R,5S)-1-(L-Lysyl)-3-amino-5-(2-boronoethyl)piperidine-3-carboxylic acid trihydrochloride]	500 to 999	1 to 249
N[C@@H](Cc1ccccc1)C(=O)N1C[C@@H](CCB(O)O)C[C@](N)(C(=O)O)C1 [Example 11, (3R,5S)-1-(L-Phenylalanyl)-3-amino-5-(2-boronoethyl)piperidine-3-carboxylic acid dihydrochloride]	1000 to 10000	1 to 249
N[C@@H](Cc1c[nH]cn1)C(=O)N1C[C@@H](CCB(O)O)C[C@](N)(C(=O)O)C1 [Example 13, (3R,5S)-1-(L-Histidyl)-3-amino-5-(2-boronoethyl)piperidine-3-carboxylic acid trihydrochloride]	500 to 999	1 to 249
N=C(N)NCCC[C@H](N)C(=O)N1C[C@@H](CCB(O)O)C[C@](N)(C(=O)O)C1 [Example 20, (3R,5S)-1-(L-Arginyl)-3-amino-5-(2-boronoethyl)piperidine-3-carboxylic acid trihydrochloride]	250 to 499	1 to 249
C[C@H](N)C(=O)N1C[C@@H](CCB(O)O)C[C@](N)(C(=O)O)[C@@H]1C [Example 30, (2S,3R,5S)-1-(L-alanyl)-3-amino-5-(2-boronoethyl)-2-methylpiperidine-3-carboxylic acid dihydrochloride]	500 to 999	1 to 249
